# Assay results as given in patent publication US11707462B2, “Checkpoint kinase 1 (CHK1) inhibitors and uses thereof” (Boundless Bio, Inc., priority 2021, dated 2023).
# Columns and labels:
# [1] = target: T1, Full-length human Chk1 protein (Homo sapiens, UniProt O14757); experiment: Kinase HTRF biochemical assay (HTRF KinEASE), Chk1 enzyme activity; conditions: full-length human Chk1, ATP 1 mM, 60 minutes at room temperature
# T1 construct: purchased Carna Biosciences, Inc. 02-117
# T1 sequence (O14757 1-476): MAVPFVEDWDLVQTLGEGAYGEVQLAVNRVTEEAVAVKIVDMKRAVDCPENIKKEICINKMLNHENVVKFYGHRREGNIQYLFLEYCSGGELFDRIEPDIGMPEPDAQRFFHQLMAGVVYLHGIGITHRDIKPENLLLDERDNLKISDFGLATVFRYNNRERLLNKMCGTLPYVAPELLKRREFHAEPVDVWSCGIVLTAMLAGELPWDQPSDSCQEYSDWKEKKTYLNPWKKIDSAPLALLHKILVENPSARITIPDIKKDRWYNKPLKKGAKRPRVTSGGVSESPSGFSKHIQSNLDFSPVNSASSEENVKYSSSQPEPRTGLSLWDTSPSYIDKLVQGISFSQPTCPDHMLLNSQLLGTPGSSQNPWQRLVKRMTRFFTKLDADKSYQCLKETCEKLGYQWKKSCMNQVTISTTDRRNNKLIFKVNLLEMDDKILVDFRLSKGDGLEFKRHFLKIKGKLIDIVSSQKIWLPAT
# In short: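 Full-length human Chk1 (0.012 ng/μL) in buffer with 5 mM MgCl2 and 1 mM DTT, preincubated with compound 10 min at room temperature; reaction with 120 nM biotinylated STK substrate 1 and 1 mM ATP for 60 min at room temperature. HTRF detection via cryptate antibody/streptavidin-XL665; IC50 from 10-point duplicate curves.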
# p-CHK1 (Ser345) = experiment: AlphaLISA SureFire Ultra p-CHK1 (Ser345) cellular assay in HT29 cells; format: cell-based; conditions: Homo sapiens, HT-29, 16 h at 37° C.
# In short: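 HT29 cells treated with compounds over a 10-point, 3-fold dilution series for 16 h at 37° C., then lysed; p-CHK1 (Ser345) in lysates measured by AlphaLISA SureFire Ultra (acceptor and donor steps 1 h each at room temperature). IC50 from dose-response curve fits.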
IC50 [1],IC50 (p-CHK1 (Ser345)),Compound
10 to 100 nM,100 to 500 nM,"N#Cc1cnc(Nc2cc(-c3ccccc3O[C@@H]3CC[C@H](N)C3)[nH]n2)cn1 [Example 1-52, 5-((5-(2-(((1R,3S)-3-aminocyclopentyl)oxy)phenyl)-1H-pyrazol-3-yl)amino)pyrazine-2-carbonitrile]"
100 to 500 nM,> 1000 nM,"N#Cc1cnc(Nc2cc(-c3ccccc3O[C@@H]3CC[C@@H](N)C3)[nH]n2)cn1 (stereo in doubt) [Example 1-37, 5-((5-(2-(((1R,3R)-3-aminocyclopentyl)oxy)phenyl)-1H-pyrazol-3-yl)amino)pyrazine-2-carbonitrile]"
≤ 10 nM,50 to 100 nM,"COc1cccc(O[C@H]2CC[C@H](N)CC2)c1-c1cc(Nc2cnc(C#N)cn2)n[nH]1 [Example 1-1, 5-((5-(2-(((lr,4r)-4-aminocyclohexyl)oxy)-6-methoxyphenyl)-1H-pyrazol-3-yl)amino)pyrazine-2-carbonitrile]"
100 to 500 nM,> 1000 nM,"COc1ccc(C)c(O[C@@H]2CC[C@H](N)C2)c1-c1cc(Nc2cnc(C#N)cn2)n[nH]1 [Example 4-3, 5-((5-(2-(((1R,3S)-3-aminocyclopentyl)oxy)-6-methoxy-3-methylphenyl)-1 H-pyrazol-3-yl)amino)pyrazine-2-carbonitrile]"
≤ 10 nM,50 to 100 nM,"CN[C@H]1CC[C@H](Oc2cccc(OC)c2-c2cc(Nc3cnc(C#N)cn3)n[nH]2)CC1 [Example 1-45, 5-((5-(2-methoxy-6-(((1r,4r)-4-(methylamino)cyclohexyl)oxy)phenyl)-1H-pyrazol-3-yl)amino)pyrazine-2-carbonitrile]"
10 to 100 nM,100 to 500 nM,"COc1cccc(O[C@H]2CC[C@@H](N)CC2)c1-c1cc(Nc2cnc(C#N)cn2)n[nH]1 [Example 1-11, 5-((5-(2-(((1s,4s)-4-aminocyclohexyl)oxy)-6-methoxyphenyl)-1H-pyrazol-3-yl)amino)pyrazine-2-carbonitrile]"
10 to 100 nM,100 to 500 nM,"N#Cc1cnc(Nc2cc(-c3c(O[C@@H]4CC[C@H](N)C4)ccc(F)c3F)[nH]n2)cn1 [Example 3-18, 5-((5-(6-(((1R,3S)-3-aminocyclopentyl)oxy)-2,3-difluorophenyl)-1H-pyrazol-3-yl)amino)pyrazine-2-carbonitrile]"
≤ 10 nM,≤ 50 nM,"Cc1ccc(O[C@@H]2CC[C@@H](N)C2)c(-c2cc(Nc3cnc(C#N)cn3)n[nH]2)c1F [Example 3-26, 5-((5-(6-(((1R,3R)-3-aminocyclopentyl)oxy)-2-fluoro-3-methylphenyl)-1H-pyrazol-3-yl)amino)pyrazine-2-carbonitrile]"
≤ 10 nM,50 to 100 nM,"Cc1cc(-c2cc(Nc3cnc(C#N)cn3)n[nH]2)c(O[C@@H]2CC[C@@H](N)C2)cc1F [Example 3-27, 5-((5-(2-(((1R,3R)-3-aminocyclopentyl)oxy)-4-fluoro-5-methylphenyl)-1H-pyrazol-3-yl)amino)pyrazine-2-carbonitrile]"

Compound,IC50 [1],IC50 (p-CHK1 (Ser345))
"COc1cc(F)cc(O[C@H]2C[C@H](N)C2)c1-c1cc(Nc2cnc(C#N)cn2)n[nH]1 [Example 1-14, 5-((5-(2-((1r,3r)-3-aminocyclobutoxy)-4-fluoro-6-methoxyphenyl)-1H-pyrazol-3-yl)amino)pyrazine-2-carbonitrile]",≤ 10 nM,≤ 50 nM
"CN[C@H]1C[C@H](Oc2ccccc2-c2cc(Nc3cnc(C#N)cn3)n[nH]2)C1 [Example 1-38, 5-((5-(2-((1r,3r)-3-(methylamino)cyclobutoxy)phenyl)-1H-pyrazol-3-yl)amino)pyrazine-2-carbonitrile]",10 to 100 nM,100 to 500 nM
"N#Cc1cnc(Nc2cc(-c3ccccc3O[C@H]3C[C@@H](N)C3)[nH]n2)cn1 [Example 1-10, 5-((5-(2-((1s,3s)-3-aminocyclobutoxy)phenyl)-1H-pyrazol-3-yl)amino)pyrazine-2-carbonitrile]",100 to 500 nM,> 1000 nM
